Columns and labels:
Experiment in all cases: relative viability (nuclei count vs DMSO), 5 days (fraction); higher = more cells survive
[1] = compound: COc1cc2c(Oc3ccc4[nH]c(C)cc4c3F)ncnc2cc1OCCCN1CCCC1 [Cediranib] + COc1cccc2cc(-c3nc([C@H]4CC[C@H](C(=O)O)CC4)n4ncnc(N)c34)[nH]c12 [OSI-027] (partner 0.5 µM)
Summary of the method: (§1)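 Dosing by pin tool came one day after lung cancer cell lines were seeded in 1536-well plates, using either one drug or a fixed anchor-drug dose plus five library-drug doses (not always all listed) in √10 steps. After 5 days, nuclei were counted on 4× images. Relative viability is treated-well nuclei count divided by vehicle-well nuclei count, and values are medians of duplicate plates.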

[2] = compound: Nc1ncn([C@H]2C[C@H](O)[C@@H](CO)O2)c(=O)n1 [Decitabine] + CC(=O)Nc1cccc(-n2c(=O)n(C3CC3)c(=O)c3c(Nc4ccc(I)cc4F)n(C)c(=O)c(C)c32)c1 [Trametinib] (partner 0.02 µM)
Summary of the method: as §1

[3] = compound: COc1cc2c(Oc3ccc4[nH]c(C)cc4c3F)ncnc2cc1OCCCN1CCCC1 [Cediranib] + CC1(C)CCC(c2ccc(Cl)cc2)=C(CN2CCN(c3ccc(C(=O)NS(=O)(=O)c4ccc(N[C@H](CCN5CCOCC5)CSc5ccccc5)c(S(=O)(=O)C(F)(F)F)c4)cc3)CC2)C1 [Navitoclax] (partner 0.5 µM)
Summary of the method: as §1

[4] = compound: Nc1ncn([C@H]2C[C@H](O)[C@@H](CO)O2)c(=O)n1 [Decitabine] + CCNC(=O)c1noc(-c2cc(C(C)C)c(O)cc2O)c1-c1ccc(CN2CCOCC2)cc1 [Luminespib] (partner 0.01 µM)
Summary of the method: as §1

UMC-11 was tested, and the relative viability ([1]; first compound 0.04 µM) was 0.461, the relative viability ([1]; first compound 0.4 µM) was 0.473 and the relative viability ([1]; first compound 4 µM) was 0.488. It also gave a relative viability ([2]; first compound 0.04 µM) of 0.697, a relative viability ([2]; first compound 0.1265 µM) of 0.609 and a relative viability ([2]; first compound 0.4 µM) of 0.4. For the same cell line, the relative viability ([2]; first compound 1.265 µM) was 0.331, the relative viability ([2]; first compound 4 µM) was 0.367 and the relative viability ([3]; first compound 0.04 µM) was 0.328. For the same cell line, the relative viability ([3]; first compound 0.1265 µM) was 0.293, the relative viability ([3]; first compound 0.4 µM) was 0.322 and the relative viability ([3]; first compound 1.265 µM) was 0.321. For the same cell line, the relative viability ([3]; first compound 4 µM) was 0.359, the relative viability ([4]; first compound 0.04 µM) was 0.935 and the relative viability ([4]; first compound 0.1265 µM) was 0.773. It also gave a relative viability ([4]; first compound 0.4 µM) of 0.559, a relative viability ([4]; first compound 1.265 µM) of 0.382 and a relative viability ([4]; first compound 4 µM) of 0.372.
